According to PubChem BioAssay (NCI):
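Test compounds were applied to cells in 96-well plates for 48 hours at 5 doses. TGI denotes the concentration required for complete inhibition of growth.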

How the values were obtained:
Assay in all cases: inhibition of tumour cell growth, NCI panel, 48 h
NCI-H226 lung = system: NCI-H226 lung
EKVX NSCLC = system: EKVX NSCLC
NCI-H23 lung = system: NCI-H23 lung
UACC-62 melanoma = system: UACC-62 melanoma
NCI/ADR-RES ovarian = system: NCI/ADR-RES ovarian
SK-MEL-2 melanoma = system: SK-MEL-2 melanoma
SNB-75 CNS = system: SNB-75 CNS
HL-60(TB) leukemia = system: HL-60(TB) leukemia
LOX IMVI melanoma = system: LOX IMVI melanoma
SK-MEL-28 melanoma = system: SK-MEL-28 melanoma

Compound	TGI (NCI-H226 lung) [µM]	TGI (EKVX NSCLC) [µM]	TGI (NCI-H23 lung) [µM]	TGI (UACC-62 melanoma) [µM]	TGI (NCI/ADR-RES ovarian) [µM]	TGI (SK-MEL-2 melanoma) [µM]	TGI (SNB-75 CNS) [µM]	TGI (HL-60(TB) leukemia) [µM]	TGI (LOX IMVI melanoma) [µM]	TGI (SK-MEL-28 melanoma) [µM]
COC(=O)[C@H](Cc1ccccc1)NC(=O)N(CCNC(=O)OC(C)(C)C)c1ccccc1	> 100	> 100	> 100	> 100	> 100	> 100	> 100	> 100	> 100	> 100
COc1ccc(C=O)cc1OS(=O)(=O)C(F)(F)C(F)(F)C(F)(F)C(F)(F)F	> 100	> 82.6	> 100	50.7	58.3	43.9	> 90.4	21.8	41.9	97.5
OC(Cc1cc(CC(O)(C(F)(F)F)C(F)(F)F)nc(CC(O)(C(F)(F)F)C(F)(F)F)c1)(C(F)(F)F)C(F)(F)F	7.58	9.32	2.65	1.6	6.32	4.31	7.81	> 10	1.34	5.68
OCC1OC(n2cnc3c(Cl)nc(Nc4ccc(Cl)c(Cl)c4)nc32)CC1O (centres undefined)	20.2	28.2	22.6	17.2	25.3	19.2	42.2	16.4	16	–
CC1(C)[C@H]2Cc3cc4nc5ccccn5c4cc3[C@@H]1C2	35.4	32.7	32.4	29.9	36.7	32	31.6	57.2	39.4	36.3
Cn1c(=S)[nH]c(N)c(Cc2ccccc2)c1=O	> 100	> 100	> 100	> 100	> 100	> 100	> 100	> 100	> 100	> 100
CC(C)c1c(O[Si](C(C)C)(C(C)C)C(C)C)cc2c(c1O)CC[C@H]1C(C)(C)CCC[C@]21C	> 100	> 100	> 100	> 100	> 100	> 100	> 100	60.4	> 100	> 100
c1ccc(/C(=N/Nc2ccccn2)c2cccnn2)cc1	11.2	16.7	> 50.3	> 52.6	13.2	> 100	32.7	71.3	> 100	> 100
Cc1cc(=O)oc2c(C)c3oc(CBr)cc3cc12	34	> 100	40	33.9	58.1	54	47.4	> 100	31.1	43.6
Cn1c(=O)c2c(=O)cc(N)[nH]c2n(C)c1=O	> 100	> 100	> 100	> 100	> 100	> 100	> 100	> 100	> 100	> 100
C=C1CC[C@@H]2[C@](C)(COC(=O)CCC(=O)O)CCC[C@@]2(C)[C@@H]1CCC1=CC(=O)OC1	> 100	> 100	> 100	> 100	> 100	> 100	> 100	> 100	> 100	> 100
